What is called melting point is the temperature, or range, at which the solid turns liquid.

We go through 46 compounds from patent publication US6825350B2, “Sulfonamide and sulfamide substituted imidazoquinolines and methods for the treatment of periodontal disease using these and other immune response modifiers” (3M Innovative Properties Company, priority 1999, dated 2004).

Molecules are shown by their SMILES. Counter-ions that a name gives are not always drawn. Like-named read-outs stand apart in the source and are kept apart here. A value given as a limit tells only on which side of the number the result lay.

For data set [1], the system named is interferon (α). As to the kind of experiment: Cytokine induction in human cells: interferon (α) by ELISA. As to conditions: human PBMCs, 18 to 24 hours incubation, ELISA of culture supernatant, read-out: Lowest Effective Concentration (μM) Interferon. The class given is cell-based. In general terms: In an ELISA, binding on a coated surface is turned into a signal by an enzyme label.

Data set [2] deals with tumor necrosis factor (α). Kind of data set: Cytokine induction in human cells: tumor necrosis factor (α) by ELISA. The class given is cell-based. The settings on record: human PBMCs, 18 to 24 hours incubation, ELISA of culture supernatant, read-out: Lowest Effective Concentration (μM) Tumor Necrosis Factor.

Turning to `CCCCc1nc2c(N)nc3ccccc3c2n1CCCCNS(=O)(=O)c1cccc(N)c1` (as salt: hydrochloride), the melting point is 110.2 °C (dec.).
The same measure, in the same setting: the value for `CCCCc1nc2c(N)nc3ccccc3c2n1CCCCNS(=O)(=O)c1ccc(N)cc1` (as salt: hydrochloride) was 203.1 to 205 °C; that for `CS(=O)(=O)NCCCCn1c(-c2ccccc2)nc2c(N)nc3ccccc3c21` [Example 16, N-[4-(4-Amino-2-phenyl-1H-imidazo[4,5-c]quinolin-1-yl)butyl]methanesulfonamide] was 234 to 235 °C; that for `CCCCc1nc2c(N)nc3ccccc3c2n1CCCCNS(=O)(=O)c1ccc([N+](=O)[O-])cc1` (as salt: hydrochloride) [Example 9, N^1-[4-(4-Amino-2-butyl-1H-imidazo[4,5-c]quinolin-1-yl)butyl]-4-nitro-1-benzenesulfonamide Hydrochloride] was 96 °C (dec.).
Same read-out and setting: as for `COCCc1nc2c(N)nc3c(c2n1CCCCNS(=O)(=O)c1ccc(F)cc1)CCCC3` [Example 14, N^1-{4-[4-Amino-2-(2-methoxyethyl)-6,7,8,9-tetrahydro-1H-imidazo[4,5-c]quinolin-1-yl]butyl}-4-fluoro-1-benzenesulfonamide], the figure is 191 to 193 °C; as for `CCCCc1nc2c(N)nc3ccccc3c2n1CCCCNS(=O)(=O)Cc1ccccc1` [Example 4, N-[4-(4-Amino-2-butyl-1H-imidazo[4,5-c]quinolin-1-yl)butyl]phenylmethanesulfonainide], 197 to 199.5 °C.
Turning to `CCCCc1nc2c(N)nc3ccccc3c2n1CCCCNS(=O)(=O)C(C)C` [Example 38], the minimal effective concentration is 0.0015 µM in data set [1] (Homo sapiens, PBMC) and 0.37 µM in data set [2] (Homo sapiens, PBMC).
The matching figures for `CCCCc1nc2c(N)nc3ccccc3c2n1CCCCNS(=O)(=O)C[C@]12CC[C@@H](CC1=O)C2(C)C` [Example 89]: 0.001 µM and 1 µM.
The matching figures for `CCCCc1nc2c(N)nc3ccccc3c2n1CCCCNS(=O)(=O)CCCCl` [Example 82]: 0.001 µM and 1 µM.
The matching figures for `CCCCc1nc2c(N)nc3ccccc3c2n1CCCCNS(=O)(=O)c1ccc(C(F)(F)F)cc1[N+](=O)[O-]` [Example 79]: 0.01 µM and 1 µM.
As for `CCCCc1nc2c(N)nc3ccccc3c2n1CCCCNS(=O)(=O)c1c(C)c(C)c(C)c(C)c1C` [Example 107], the minimal effective concentration was 1 µM in data set [1] (Homo sapiens, PBMC) and over 10 µM in data set [2] (Homo sapiens, PBMC).
The matching figures for `CCCCc1nc2c(N)nc3ccccc3c2n1CCCCNS(=O)(=O)c1ccc(-c2ccccc2)cc1` [Example 96]: 1 µM and over 10 µM.
Consider `CCCCc1nc2c(N)nc3ccccc3c2n1CCCCNS(=O)(=O)c1cccc(OC)c1` [Example 104], for which the minimal effective concentration in data set [1] (Homo sapiens, PBMC) is 0.01 µM; in data set [2] (Homo sapiens, PBMC), over 10 µM.
The corresponding values for `CCCCc1nc2c(N)nc3ccccc3c2n1CCCCNS(=O)(=O)c1ccc(OC(F)(F)F)cc1` [Example 85] are 1 µM and over 10 µM.
The matching figures for `CCCCc1nc2c(N)nc3ccccc3c2n1CCCCNS(=O)(=O)c1cc(F)ccc1C` [Example 106]: 1 µM and 1 µM.
The corresponding values for `COCCc1nc2c(N)nc3ccccc3c2n1CCCCNS(=O)(=O)Cc1ccccc1` [Example 113] are 0.0001 µM and over 10 µM.
In the case of `CCCCCCCCS(=O)(=O)NCCCCn1cnc2c(N)nc3c(c21)CCCC3` [Example 56], the minimal effective concentration in data set [1] (Homo sapiens, PBMC) is over 30 µM; in data set [2] (Homo sapiens, PBMC) it was over 30 µM.
Turning to `Cc1ccc(S(=O)(=O)NCCCCn2cnc3c(N)nc4c(c32)CCCC4)cc1` [Example 64], the minimal effective concentration in data set [1] (Homo sapiens, PBMC) is 3.33 µM; in data set [2] (Homo sapiens, PBMC), over 30 µM.
Take `CCCCc1nc2c(N)nc3c(c2n1CCCCNS(=O)(=O)C(C)C)CCCC3` [Example 203]: the minimal effective concentration in data set [1] (Homo sapiens, PBMC) was found to be 0.0001 µM; in data set [2] (Homo sapiens, PBMC), 1 µM.
As to `CCCCc1nc2c(N)nc3ccccc3c2n1CCCCNS(=O)(=O)c1ccccc1OC(F)(F)F` [Example 91], the minimal effective concentration in data set [1] (Homo sapiens, PBMC) came to 0.01 µM; in data set [2] (Homo sapiens, PBMC) it was 1 µM.
The matching figures for `CCCCc1nc2c(N)nc3ccccc3c2n1CCCCNS(=O)(=O)c1ccc(Cl)cc1Cl` [Example 92]: 0.1 µM and 10 µM.
With `COCCc1nc2c(N)nc3ccccc3c2n1CCCCNS(=O)(=O)c1ccccc1F` [Example 120], the minimal effective concentration in data set [1] (Homo sapiens, PBMC) is 0.0001 µM; in data set [2] (Homo sapiens, PBMC), 1 µM.
The matching figures for `CCCS(=O)(=O)NCCCCn1cnc2c(N)nc3c(c21)CCCC3` [Example 54]: 10 µM and over 30 µM.
The corresponding values for `Nc1nc2c(c3c1ncn3CCCCNS(=O)(=O)c1cccc3cccnc13)CCCC2` [Example 69] are 10 µM and over 30 µM.
The matching figures for `COCCc1nc2c(N)nc3ccccc3c2n1CCCCNS(=O)(=O)NCc1ccccc1` [Example 231]: 0.0001 µM and 1 µM.
Regarding `COCCc1nc2c(N)nc3ccccc3c2n1CCCCNS(=O)(=O)C[C@]12CCC(CC1=O)C2(C)C` [Example 148], the minimal effective concentration worked out at 0.0001 µM in data set [1] (Homo sapiens, PBMC) and 1 µM in data set [2] (Homo sapiens, PBMC).
The matching figures for `CCCCc1nc2c(N)nc3ccccc3c2n1CCNS(=O)(=O)c1ccc(OC)cc1` [Example 27]: 1.11 µM and 30 µM.
As to `CCCCc1nc2c(N)nc3ccccc3c2n1CCCCNS(=O)(=O)C[C@]12CC[C@H](CC1=O)C2(C)C` [Example 73], the minimal effective concentration in data set [1] (Homo sapiens, PBMC) worked out at 0.001 µM; in data set [2] (Homo sapiens, PBMC) it was 0.1 µM.
The matching figures for `Nc1nc2c(c3c1ncn3CCCCNS(=O)(=O)/C=C/c1ccccc1)CCCC2` [Example 68]: 10 µM and over 30 µM.
The corresponding values for `COCCc1nc2c(N)nc3ccccc3c2n1CCCCNS(=O)(=O)c1ccccc1` [Example 158] are 0.0001 µM and 1 µM.
The corresponding values for `CCCCc1nc2c(N)nc3ccccc3c2n1CCCCNS(=O)(=O)c1cc(Cl)ccc1OC` [Example 100] are 0.01 µM and 10 µM.
As for `CCCCc1nc2c(N)nc3ccccc3c2n1CCNS(=O)(=O)c1cccs1` [Example 19], the minimal effective concentration in data set [1] (Homo sapiens, PBMC) was 0.12 µM; in data set [2] (Homo sapiens, PBMC), 3.33 µM.
Consider `CCCCS(=O)(=O)NCCCCn1c(CCOC)nc2c(N)nc3ccccc3c21` [Example 117], for which the minimal effective concentration was found to be 0.0001 µM in data set [1] (Homo sapiens, PBMC) and 1 µM in data set [2] (Homo sapiens, PBMC).
The matching figures for `COCCc1nc2c(N)nc3ccccc3c2n1CCCCNS(=O)(=O)N1CCCC1` [Example 229]: 0.0001 µM and 0.1 µM.
Take `COCCc1nc2c(N)nc3ccccc3c2n1CCCCNS(=O)(=O)c1ccc(S(C)(=O)=O)cc1` [Example 161]: the minimal effective concentration in data set [1] (Homo sapiens, PBMC) was found to be 0.01 µM; in data set [2] (Homo sapiens, PBMC) it was 10 µM.
The corresponding values for `CCCS(=O)(=O)NCCCCn1c(CCOC)nc2c(N)nc3c(c21)CCCC3` [Example 208] are 0.0001 µM and 1 µM.
`COCCc1nc2c(N)nc3ccccc3c2n1CCCCNS(=O)(=O)c1ccc(Br)cc1` [Example 152]: the minimal effective concentration in data set [1] (Homo sapiens, PBMC) was 0.0001 µM; in data set [2] (Homo sapiens, PBMC) it was 10 µM.
As to `CCCCc1nc2c(N)nc3ccccc3c2n1CCCCNS(=O)(=O)/C=C/c1ccccc1` [Example 50], the minimal effective concentration is 0.12 µM in data set [1] (Homo sapiens, PBMC) and over 30 µM in data set [2] (Homo sapiens, PBMC).
`Nc1nc2c(c3c1ncn3CCCCNS(=O)(=O)c1cccs1)CCCC2` [Example 57]: the minimal effective concentration was 3.33 µM in data set [1] (Homo sapiens, PBMC) and over 30 µM in data set [2] (Homo sapiens, PBMC).
The matching figures for `COCCc1nc2c(N)nc3ccccc3c2n1CCCCNS(=O)(=O)NC(C)(C)C` [Example 230]: 0.0001 µM and 1 µM.
With `CCCCc1nc2c(N)nc3ccccc3c2n1CCNS(=O)(=O)c1ccc2ccccc2c1` [Example 32], the minimal effective concentration is 1.11 µM in data set [1] (Homo sapiens, PBMC) and over 30 µM in data set [2] (Homo sapiens, PBMC).
The matching figures for `COCCc1nc2c(N)nc3ccccc3c2n1CCCCNS(=O)(=O)c1ccc(C)cc1` [Example 159]: 0.0001 µM and 0.1 µM.
Regarding `CCCCc1nc2c(N)nc3ccccc3c2n1CCNS(=O)(=O)c1cccc2c(N(C)C)cccc12` [Example 33], the minimal effective concentration amounted to 1.11 µM in data set [1] (Homo sapiens, PBMC) and 10 µM in data set [2] (Homo sapiens, PBMC).
Regarding `CCCCc1nc2c(N)nc3ccccc3c2n1CCCCNS(=O)(=O)c1cc(Br)ccc1OC` [Example 105], the values for the minimal effective concentration in data set [1] and in data set [2] were 1 µM and 10 µM, respectively.
As to `CCCCc1nc2c(N)nc3ccccc3c2n1CCCCNS(=O)(=O)c1cccc2ccccc12` [Example 41], the minimal effective concentration in data set [1] (Homo sapiens, PBMC) was 0.01 µM; in data set [2] (Homo sapiens, PBMC), over 30 µM.
The corresponding values for `COCCc1nc2c(N)nc3ccccc3c2n1CCCCNS(=O)(=O)c1c(C)noc1C` [Example 123] are 0.0001 µM and 10 µM.
